US11541098B2, “Peptide composition for treating excitatory neurotoxicity related injuries” (Biocells (Beijing) Biotech Co., Ltd., priority 2017, dated 2023)
Where “and” joins values, the source holds several entries; their conditions need not be identical. Equal values may be shown once. Peptide text beside a SMILES is read from it.

Columns and labels:
MCAO model rats [1] = experiment: Therapeutic effect on MCAO model rats (cerebral infarction volume, TTC staining); details: rat, in vivo
Protocol: The focal cerebral ischemia-reperfusion model was prepared according to the reversible middle cerebral artery occlusion (MCAO) suture method proposed by Longa with modifications in view of the anatomical structure of the rat brain. The rats were anesthetized by intraperitoneal administration of 10% chloral hydrate at a dose of […]. After anesthetization, a cut was created at the cervical midline, and the common carotid artery (CCA), external carotid artery (ECA) and pterygopalatine artery were exposed. The head portion (0.5 cm) of a monofilament nylon fishing line (0.26 mm) was coated with paraffin and a mark was made at 20 mm. All rats were inserted through the right CCA incision, and the pterygopalatine artery was temporarily clamped to prevent mis-insertion. The length of the occlusion line was about 18-20 mm from the bifurcation of CCA depending on the animal's weight, thereby occluding middle cerebral artery on the right side. The skin was then sewed, and the tail end of the occlusion line was partially fixed to the skin. After a period of ischemia for 2 hours, the occlusion line was carefully pulled out to form a reperfusion. The procedure steps for the sham control were the same as the surgery group, except for insertion of a nylon fishing line. The body temperature was maintained at 37±0.5° C. during the ischemia period and 2 h after reperfusion.
The used animals were male adult SD rats (Vittalia) of SPF grade with body weight of 220-250 g.
No drug was administered to the normal group and the sham group.
The rats were sacrificed by decapitation after scoring. The brain tissues were quickly removed and placed in a refrigerator at −20° C. After 10 minutes, the tissues were placed in a room temperature environment. The brains were placed in a rat brain section mold. After the olfactory bulb, cerebellum and low brain stem were removed, the brains were coronally cut five times at 2 mm thickness as shown in the profile to obtain six continuous raw coronal slices. Then, the brain sections were quickly placed in a 5 ml solution containing 2% TTC, and incubated at 37° C. for 30 minutes in the dark, during which the brain sections were flipped once every 5 minutes. With the TTC staining, the normal tissue would be rose red, and the infarcted tissue would be unstained and retained white. Each group of brain sections was arranged neatly, and photographed. The photos were processed by an image analysis system software and statistically analyzed. The infarction area of each brain section was calculated, and multiplied by the thickness of each brain section (2 mm). The products of the infarction area of individual brain section multiplied by the thickness were summed to obtain the cerebral infarction volume for each animal. The volumes were expressed as percentages accounting for the cerebral hemisphere to eliminate the effects of cerebral edema.

rats = experiment: Acute toxicity test on rats; assay type: in vivo, rat; details: dose of 200 mg/kg body weight
Protocol: Acute toxicity tests were performed on rats.

MCAO model rats [2] = experiment: HE staining for histological changes of rat brain after ischemia; assay type: in vivo; details: 10 mg/kg, 24 h after ischemia
Protocol: The rats in each group were decapitated at 24 h after ischemia, and the resultant brain was coronally sectioned near the optic chiasm with a thickness of about 4 mm. The sections were fixed with 10% formalin solution and dehydrated with alcohol with a concentration gradient from 70% to 100%. The sections were permeabilized twice in xylene, and embedded in paraffin. The paraffin block was carefully trimmed, and immobilized on a paraffin slicing machine, and sliced to sections with a thickness of 4 μm. The paraffin sections were completely unfolded, attached to a clean and dry glass slide, and stored in a refrigerator at 4° C. Conventional HE staining was performed, and the staining results were observed by light microscopy.

SMILES	Mean of infarction volume percentage (%) (MCAO model rats [1])	Mean of infarction volume percentage (%) (MCAO model rats [1]; 1 mg/kg)	Reduction of infarction volume percentage vs model group (MCAO model rats [1]; 1 mg/kg) [%]	Mean of infarction volume percentage (%) (MCAO model rats [1]; 3 mg/kg)	Reduction of infarction volume percentage vs model group (MCAO model rats [1]; 3 mg/kg) [%]	Mean of infarction volume percentage (%) (MCAO model rats [1]; 10 mg/kg)	acute toxicity (rats)	pathological changes of brain tissue (HE staining) (MCAO model rats [2]; prophylactic administration)	pathological changes of brain tissue (HE staining) (MCAO model rats [2]; therapeutic administration)
CC[C@H](C)[C@H](NC(=O)[C@H](CO)NC(=O)[C@H](CO)NC(=O)[C@H](CC(C)C)NC(=O)[C@H](CCCCN)NC(=O)[C@H](CCCNC(=N)N)NC(=O)[C@H](CCCNC(=N)N)NC(=O)[C@H](CCCNC(=N)N)NC(=O)[C@H](CCC(N)=O)NC(=O)[C@H](CCCNC(=N)N)NC(=O)[C@H](CCCNC(=N)N)NC(=O)[C@H](CCCCN)NC(=O)[C@H](CCCCN)NC(=O)[C@H](CCCNC(=N)N)NC(=O)CNC(=O)[C@@H](N)Cc1ccc(O)cc1)C(=O)N[C@@H](CCC(=O)O)C(=O)N[C@@H](CO)C(=O)N[C@@H](CC(=O)O)C(=O)N[C@H](C(=O)O)C(C)C [NA-1, reference compound] (H-YGRKKRRQRRRKLSSIESDV-OH)	38.56%	–	–	–	–	–	–	–	–
CC[C@H](C)[C@H](NC(=O)[C@H](CCC(=O)O)NC(=O)[C@@H](NC(=O)[C@H](CC(=O)O)NC(=O)[C@H](CC(C)C)NC(=O)[C@H](CC(C)C)NC(=O)[C@H](CCCCN)NC(=O)[C@H](CCC(=O)O)NC(=O)[C@H](Cc1ccc(O)cc1)NC(=O)[C@H](CCCNC(=N)N)NC(=O)[C@H](CCCNC(=N)N)NC(=O)[C@H](CCCNC(=N)N)NC(=O)[C@H](CCC(N)=O)NC(=O)[C@H](CCCNC(=N)N)NC(=O)[C@H](CCCNC(=N)N)NC(=O)[C@H](CCCCN)NC(=O)[C@H](CCCCN)NC(=O)[C@H](CCCNC(=N)N)NC(=O)CNC(=O)[C@@H](N)Cc1ccc(O)cc1)[C@@H](C)O)C(=O)O [P5]	24.84% and 36.54% and 43.22%	44.23	3.76	35.66	22.41	19.54	no lethal effect and other obvious toxic side effects	significantly improved	significantly improved
CC[C@H](C)[C@H](NC(=O)[C@H](CO)NC(=O)[C@H](CO)NC(=O)[C@H](CC(C)C)NC(=O)[C@H](CCCCN)NC(=O)[C@H](CCC(=O)O)NC(=O)[C@H](Cc1ccc(O)cc1)NC(=O)[C@H](CCCNC(=N)N)NC(=O)[C@H](CCCNC(=N)N)NC(=O)[C@H](CCCNC(=N)N)NC(=O)[C@H](CCC(N)=O)NC(=O)[C@H](CCCNC(=N)N)NC(=O)[C@H](CCCNC(=N)N)NC(=O)[C@H](CCCCN)NC(=O)[C@H](CCCCN)NC(=O)[C@H](CCCNC(=N)N)NC(=O)CNC(=O)[C@@H](N)Cc1ccc(O)cc1)C(=O)N[C@@H](CCC(=O)O)C(=O)N[C@@H](CO)C(=O)N[C@@H](CC(=O)O)C(=O)N[C@H](C(=O)O)C(C)C [YE-NA-1] (H-YGRKKRRQRRRYEKLSSIESDV-OH)	33.96%	–	–	–	–	–	–	–	–
